Laboratory results as given in article PMC10620772, “Design, synthesis, and biological evaluation of new pyrimidine-5-carbonitrile derivatives as novel anti-cancer, dual EGFR^WT/COX-2 inhibitors with docking studies” (RSC Advances, 2023).

What was measured:
Test in all cases: NCI60 antitumor screening
Format in all cases: cell-based, human
SK-MEL-5 = conditions: five-dose
UACC-257 = system: UACC-257
UACC-62 = system: UACC-62
IGROV1 = system: IGROV1
OVCAR-3 = system: OVCAR-3
OVCAR-5 = system: OVCAR-5
OVCAR-8 = system: OVCAR-8
SK-OV-3 = system: SK-OV-3
786–0 = system: 786–0
ACHN = system: ACHN
CAKI-1 = system: CAKI-1
RXF 393 = system: RXF 393
SN12C = system: SN12C
TK-10 = system: TK-10
UO-31 = system: UO-31
PC-3 = system: PC-3
DU-145 = system: DU-145
MCF7 = system: MCF7
BT-549 = system: BT-549
MDA-MB-468 = system: MDA-MB-468
[1] = Homo sapiens, MDA-MB-468, five-dose

For `N#Cc1c(-c2ccc(F)cc2)nc(SCc2ccc(F)cc2)nc1N1CCNCC1` [4f, 2-((4-Fluorobenzyl)thio)-4-(4-fluorophenyl)-6-(piperazin-1-yl) pyrimidine-5-carbonitrile], the TGI (SK-MEL-5) was 30.50 µM, the GI50 (UACC-257; Homo sapiens, UACC-257, five-dose) was 14.8 µM and the CC50 (UACC-257; Homo sapiens, UACC-257, five-dose, read-out: LC50 (the source's name)) was 55.8 µM. It also gave an inhibition at 10 µM (UACC-257; Homo sapiens, 10 μM single dose, UACC-257 (melanoma), read-out: growth inhibition percent (GI%)) of over 100%, a TGI (UACC-257; five-dose) of 28.70 µM and a GI50 (UACC-62; Homo sapiens, UACC-62, five-dose) of 15.9 µM. For the same molecule, the CC50 (UACC-62; Homo sapiens, UACC-62, five-dose, read-out: LC50 (the source's name)) was 56.2 µM, the inhibition at 10 µM (UACC-62; Homo sapiens, 10 μM single dose, UACC-62 (melanoma), read-out: growth inhibition percent (GI%)) was over 100% and the TGI (UACC-62; five-dose) was 29.90 µM. It also gave an inhibition at 10 µM (IGROV1; Homo sapiens, IGROV-1, 10 μM single dose, IGROV1 (ovarian cancer), read-out: growth inhibition percent (GI%)) of over 100%, a GI50 (IGROV1; Homo sapiens, IGROV-1, five-dose) of 15.6 µM and a CC50 (IGROV1; Homo sapiens, IGROV-1, five-dose, read-out: LC50 (the source's name)) of 56.8 µM. The TGI (IGROV1; five-dose) was 29.80 µM, the GI50 (OVCAR-3; Homo sapiens, OVCAR-3, five-dose) was 15.5 µM and the CC50 (OVCAR-3; Homo sapiens, OVCAR-3, five-dose, read-out: LC50 (the source's name)) was 61.2 µM. It also gave an inhibition at 10 µM (OVCAR-3; Homo sapiens, 10 μM single dose, OVCAR-3 (ovarian cancer), read-out: growth inhibition percent (GI%)) of over 100%, a TGI (OVCAR-3; five-dose) of 30.80 µM and a GI% (OVCAR-5; 10 μM one-dose) of 99.16%. It also gave a GI50 (OVCAR-5; Homo sapiens, OVCAR-5, five-dose) of 14.5 µM, a CC50 (OVCAR-5; Homo sapiens, OVCAR-5, five-dose, read-out: LC50 (the source's name)) of 53.9 µM and an inhibition at 10 µM (OVCAR-5; Homo sapiens, 10 μM single dose, OVCAR-5 (ovarian cancer), read-out: growth inhibition percent (GI%)) of 99.2%. The TGI (OVCAR-5; five-dose) was 28.00 µM, the GI50 (OVCAR-8; Homo sapiens, OVCAR-8, five-dose) was 13.2 µM and the CC50 (OVCAR-8; Homo sapiens, OVCAR-8, five-dose, read-out: LC50 (the source's name)) was 70.6 µM. It also gave an inhibition at 10 µM (OVCAR-8; Homo sapiens, 10 μM single dose, OVCAR-8 (ovarian cancer), read-out: growth inhibition percent (GI%)) of over 100%, a TGI (OVCAR-8; five-dose) of 30.50 µM and a GI50 (SK-OV-3; Homo sapiens, SK-OV-3, five-dose) of 16 µM. For the same molecule, the CC50 (SK-OV-3; Homo sapiens, SK-OV-3, five-dose, read-out: LC50 (the source's name)) was 55.4 µM, the inhibition at 10 µM (SK-OV-3; Homo sapiens, 10 μM single dose, SK-OV-3 (ovarian cancer), read-out: growth inhibition percent (GI%)) was 43.3% and the TGI (SK-OV-3; five-dose) was 29.80 µM. The GI50 (786–0; Homo sapiens, 786-0, five-dose) was 13.8 µM, the LC50 (concentration killing 50% of tumour cells) (786–0; Homo sapiens, 786-0, five-dose) was 62.6 µM and the inhibition at 10 µM (786–0; Homo sapiens, 10 μM single dose, 786–0 (renal cancer), read-out: growth inhibition percent (GI%)) was over 100%. For the same molecule, the TGI (786–0; five-dose) was 29.30 µM, the GI50 (ACHN; Homo sapiens, ACHN, five-dose) was 15 µM and the LC50 (ACHN; Homo sapiens, ACHN, five-dose) was 54.5 µM. It also gave an inhibition at 10 µM (ACHN; Homo sapiens, 10 μM single dose, ACHN (renal cancer), read-out: growth inhibition percent (GI%)) of over 100%, a TGI (ACHN; five-dose) of 28.60 µM and a GI50 (CAKI-1; Homo sapiens, CAKI-1, five-dose) of 15.3 µM. It also gave a CC50 (CAKI-1; Homo sapiens, CAKI-1, five-dose, read-out: LC50 (the source's name)) of 54.6 µM, an inhibition at 10 µM (CAKI-1; Homo sapiens, 10 μM single dose, CAKI-1 (renal cancer), read-out: growth inhibition percent (GI%)) of over 100% and a TGI (CAKI-1; five-dose) of 29.00 µM. It also gave a CC50 (RXF 393; Homo sapiens, RXF 393, five-dose, read-out: LC50 (the source's name)) of 51.5 µM, an inhibition at 10 µM (RXF 393; Homo sapiens, 10 μM single dose, RXF 393 (renal cancer), read-out: growth inhibition percent (GI%)) of over 100% and a TGI (RXF 393; five-dose) of 21.40 µM. It also gave a GI50 (SN12C; Homo sapiens, SN12C, five-dose) of 15.3 µM, a CC50 (SN12C; Homo sapiens, SN12C, five-dose, read-out: LC50 (the source's name)) of 55.2 µM and an inhibition at 10 µM (SN12C; Homo sapiens, 10 μM single dose, SN12C (renal cancer), read-out: growth inhibition percent (GI%)) of over 100%. For the same molecule, the TGI (SN12C; five-dose) was 29.00 µM, the GI50 (TK-10; Homo sapiens, TK-10, five-dose) was 15 µM and the LC50 (TK-10; Homo sapiens, TK-10, five-dose) was 58.8 µM. The inhibition at 10 µM (TK-10; Homo sapiens, 10 μM single dose, TK-10 (renal cancer), read-out: growth inhibition percent (GI%)) was over 100%, the TGI (TK-10; five-dose) was 29.70 µM and the GI% (UO-31; 10 μM one-dose) was 91.74%. For the same molecule, the inhibition at 10 µM (UO-31; Homo sapiens, 10 μM single dose, UO-31 (renal cancer), read-out: growth inhibition percent (GI%)) was 91.7%, the GI% (PC-3; 10 μM one-dose) was 88.74% and the GI50 (PC-3; Homo sapiens, PC-3, five-dose) was 12.5 µM. It also gave a CC50 (PC-3; Homo sapiens, PC-3, five-dose, read-out: LC50 (the source's name)) of 61.3 µM, an inhibition at 10 µM (PC-3; Homo sapiens, 10 μM single dose, PC-3 (prostate cancer), read-out: growth inhibition percent (GI%)) of 88.7% and a TGI (PC-3; five-dose) of 27.70 µM. It also gave a GI50 (DU-145; Homo sapiens, DU-145, five-dose) of 16.8 µM, a CC50 (DU-145; Homo sapiens, DU-145, five-dose, read-out: LC50 (the source's name)) of 58.1 µM and an inhibition at 10 µM (DU-145; Homo sapiens, DU-145, read-out: growth inhibition percent (GI%)) of over 100%. For the same molecule, the TGI (DU-145; five-dose) was 31.30 µM, the GI50 (MCF7; Homo sapiens, MCF7, five-dose) was 6.43 µM and the CC50 (MCF7; Homo sapiens, MCF7, five-dose, read-out: LC50 (the source's name)) was 50.1 µM. For the same molecule, the inhibition at 10 µM (MCF7; Homo sapiens, 10 μM single dose, MCF7 (breast cancer), read-out: growth inhibition percent (GI%)) was over 100%, the TGI (MCF7; five-dose) was 20.20 µM and the GI50 (BT-549; Homo sapiens, BT-549, five-dose) was 10.7 µM. For the same molecule, the CC50 (BT-549; Homo sapiens, BT-549, five-dose, read-out: LC50 (the source's name)) was 49.4 µM, the inhibition at 10 µM (BT-549; Homo sapiens, 10 μM single dose, BT-549 (breast cancer), read-out: growth inhibition percent (GI%)) was 17.3% and the TGI (BT-549; five-dose) was 23.00 µM. The GI50 (MDA-MB-468; [1]) was 12.4 µM, the LC50 (MDA-MB-468; [1]) was 55.3 µM and the inhibition at 10 µM (MDA-MB-468; Homo sapiens, 10 μM single dose, MDA-MB-468 (breast cancer), read-out: growth inhibition percent (GI%)) was over 100%. The TGI (MDA-MB-468; five-dose) was 26.20 µM.
